# Laboratory results taken from patent US7208314B2, “Compositions and methods for drug delivery using pH sensitive molecules” (priority 2002, dated 2007).
# Read-outs that look alike come from different tables or passages of the source. Peptide text beside a SMILES is read from it. * marks the point of attachment. X1 = C/C(C(=O)O)=C(\C)C(=O)*
# How the values were obtained:
# [1] = Kinetics of conversion of dimethylmaleamic modified amines to amines at pH 5 (trinitrobenzenesulfonate); format: physicochemical; details: 40 mM sodium acetate buffer pH 5 and 1 mM cetyltrimetylammonium bromide
# Method: Dimethyl maleamic modified poly-L-lysine (10 mg/mL) was incubated in 10 mM sodium acetate buffer pH 5. At various times, aliquots (10 μg) were removed and added to 0.5 mL of 100 mM borax solution containing 0.4 mM trinitrobenzenesulfonate. A half an hour later, the absorbance of the solution at 420 nm was measured. To determine the concentration of amines at each time point, the extinction coefficient was determine for the product of trinitrobenzenesulfonate and poly-L-lysine. Using this extinction coefficient we were able to calculate the amount of amines and maleamic groups at each time point. A plot of ln (At/A0) as a function of time was a straight line whose slope is the negative of the rate constant for the conversion of maleamic acid to amine and anhydride, where At is the concentration of maleamic acid at a time t and A0 is the initial concentration of maleamic acid. For two separate experiments we calculated rate constants of […] which correspond to half lives of roughly 10 and 4 minutes respectively.
# Dimethyl maleamic modified KL3 (0.1 mg/mL) was incubated in 40 mM sodium acetate buffer pH 5 and 1 mM cetyltrimetylammonium bromide. At various times, aliquots (10 μg) were removed and added to 0.05 mL of 1 M borax solution containing 4 mM trinitrobenzenesulfonate. A half an hour later, the absorbance of the solution at 420 nm was measured. […]
# [2] = tested on: 3T3 mouse embryonic fibroblast cells; assay: In vitro transfection with DNA-PLL complexes with dimethylmaleamic KL3 and dimethylmaleamic KL3-PLL; format: cell-based; details: pCIluc DNA/poly-L-lysine complex plus 10 mg modified peptide; opti-MEM 4 h; 48 h
# Method: To a complex of plasmid DNA pCIluc (10 μg/mL, prepared according to Danko, I., Williams, P., Herweijer, H. Zhang, G., Latendresse, J. S., Bock, I., Wolff, J. A. Hum. Mol. Genetics 1997, 6, 1435.) and poly-L-lysine (40 μg/mL) in 0.5 mL water was added 10 mg of 2,3-dimethylmaleamic -KL3-PLL or 2,3-dimethylmaleamic -KL3. The DNA-poly-L-lysine-2,3-dimethylmaleamic peptide complexes were then added (200 μL) to a well containing 3T3 mouse embryonic fibroblast cells in opti-MEM. After 4 h, the media was replaced with 90% Dubelco's modified Eagle Media and 10% fetal bovine serum the cells were then allowed to incubate for 48 h. The cells were then harvested and then assayed for luciferase expression as previously reported (Wolff, J. A., Malone, R. W., Williams, P., Chong, W., Acsadi, G., Jani, A. and Felgner, P. L. Direct gene transfer into mouse muscle in vivo. Science, 1465–1468, 1990.). A Lumat LB 9507 (EG&G Berthold, Bad-Wildbad, Germany) luminometer was used. The amount of transfection was reported in relative light units and is the average transfection for two separate wells of cells.
# [3] = tested on: 3T3 mouse embryonic fibroblast cells; assay: In vitro transfection with DNA-PLL-KL3 and dimethylmaleamic KL3, luciferase expression; format: cell-based
# Method: To a complex of plasmid DNA pCIluc (10 μg/mL, 0.075 mM in phosphate, 2.6 μg/μL pCIluc; prepared according to Danko, I., Williams, P., Herweijer, H. Zhang, G., Latendresse, J. S., Bock, I., Wolff, J. A. Hum. Mol. Genetics 1997, 6, 1435.) and poly-L-lysine (40 μg/mL) in 0.5 mL of 5 mM HEPES pH 7.5 was added succinylated poly-L-lysine (34,000 MW, Aldrich Chemical), 2,3-dimethylmaleamic melittin and 2,3-dimethylmaleamic KL3. The DNA-poly-L-lysine-2,3-dimethylmaleamic peptide complexes were then added (200 μL) to wells containing 3T3 mouse embryonic fibroblast cells in 290 mM glucose and 5 mM HEPES buffer pH 7.5. After 1.5 h, the glucose media was replaced with Dubelco's modified Eagle Media and the cells were allowed to incubate for 48 h. The cells were then harvested and then assayed for luciferase expression as previously reported (Wolff, J. A., Malone, R. W., Williams, P., Chong, W., Acsadi, G., Jani, A. and Felgner, P. L. Direct gene transfer into mouse muscle in vivo. Science, 1465–1468, 1990.). A Lumat LB 9507 (EG&G Berthold, Bad-Wildbad, Germany) luminometer was used. The amount of transfection was reported in relative light units and is the average transfection for two separate wells of cells.
# [4] = Hemolysis assay: melittin or KL3 blocked by anionic polymer or dimethylmaleic anhydride; format: cell-based; details: pH 7.5, read-out: Percent hemolysis
# Method: The membrane-disruptive activity of the peptide melittin and subsequent blocking of activity by anionic polymers was measured using a red blood cell (RBC) hemolysis assay. RBCs were harvested by centrifuging whole blood for 4 min. They were washed three times with 100 mM dibasic sodium phosphate at the desired pH, and resuspended in the same buffer to yield the initial volume. They were diluted 10 times in the same buffer, and 200 uL of this suspension was used for each tube. This yields 10 ? 8 RBCs per tube. Each tube contained 800 uL of buffer, 200 uL of the RBC suspension, and the peptide with or without polymer. Each sample was then repeated to verify reproducibility. The tubes were incubated for 30 minutes in a 37 C water bath. They were spun for 5 min at full speed in the microcentifuge. Lysis was determined by measuring the absorbance of the supernatant at 541 nm, reflecting the amount of hemoglobin that had been released into the supernatant. Percent hemolysis was calculated assuming 100% lysis to be measured by the hemoglobin released by the red blood cells in water; controls of RBCs in buffer with no peptide were also run.
structure (smiles),measurement,setting,value
"C/C(C(=O)O)=C(\C)C(=O)NCCCC[C@H](NC(=O)/C(C)=C(/C)C(=O)O)C(=O)N[C@@H](CC(C)C)C(=O)N[C@@H](CC(C)C)C(=O)N[C@@H](CCCCNC(=O)/C(C)=C(/C)C(=O)O)C(=O)N[C@@H](CC(C)C)C(=O)N[C@@H](CC(C)C)C(=O)N[C@@H](CC(C)C)C(=O)N[C@@H](CCCCNC(=O)/C(C)=C(/C)C(=O)O)C(=O)N[C@@H](CC(C)C)C(=O)N[C@@H](Cc1c[nH]c2ccccc12)C(=O)N[C@@H](CC(C)C)C(=O)N[C@@H](CCCCNC(=O)/C(C)=C(/C)C(=O)O)C(=O)N[C@@H](CC(C)C)C(=O)N[C@@H](CC(C)C)C(=O)N[C@@H](CCCCNC(=O)/C(C)=C(/C)C(=O)O)C(=O)N[C@@H](CC(C)C)C(=O)N[C@@H](CC(C)C)C(=O)N[C@@H](CC(C)C)C(=O)N[C@@H](CCCCNC(=O)/C(C)=C(/C)C(=O)O)C(=O)N[C@@H](CC(C)C)C(=O)N[C@@H](CC(C)C)C(=O)O [2,3-dimethylmaleamic KL3] (X1-K(X1)LLK(X1)LLLK(X1)LWLK(X1)LLK(X1)LLLK(X1)LL-OH; N-terminus and C-terminus assumed)",rate constant for the conversion of maleamic acid to amine and anhydride,[1],0.087 s⁻¹
same,Relative Light Units (luciferase expression),[2],20927 Relative Light Units
same,Relative Light Units (luciferase expression),"[3]; pCIluc DNA/poly-L-lysine complex plus named additive, 48 h, average of two wells",49535 Relative Light Units
same,Relative Light Units relative to Succinylated poly-L-lysine,[3]; value in parentheses,7.7
same,hemolysis,"[4]; 30 minutes, 37 C",4%
same,hemolysis,[4]; post incubation at pH 5.4 30 seconds,85%
